Read-outs that look alike come from different tables or passages of the source.
Columns and labels:
HIV protease = molecular target: T1, HIV protease (Human immunodeficiency virus type 1 group M subtype B, UniProt P04585); test: HIV protease enzyme assay (fluorogenic substrate 2-aminobenzoyl-Ile-Nle-Phe(p-NO2)-Gln-ArgNH2); assay type: biochemical; settings: for inhibition at 10 µM: at a concentration of 10 micromolar
T1 construct: HIV protease is diluted in the assay buffer to a final enzyme concentration of 12.3 nanomolar, based on a molecular weight of 10,780
Procedure: The compounds of the present invention are effective HIV protease inhibitors. […] The calculated IC50 (inhibiting concentration 50%, i.e., the concentration at which the inhibitor compound reduces enzyme activity by 50%) values are shown in Table 1. The enzyme method is described below. The substrate is 2-aminobenzoyl-Ile-Nle-Phe(p-NO2)-Gln-ArgNH2. The positive control is MVT-101 (Miller, M. et al, Science, 246, 1149 (1989)] The assay conditions are as follows:
Assay buffer: 20 mM sodium phosphate, pH 6.4
The above described substrate is dissolved in DMSO, then diluted 10 fold in assay buffer. Final substrate concentration in the assay is 80 μM.
HIV protease is diluted in the assay buffer to a final enzyme concentration of 12.3 nanomolar, based on a molecular weight of 10,780.
The final concentration of DMSO is 14% and the final concentration of glycerol is 18%. The test compound is dissolved in DMSO and diluted in DMSO to 10× the test concentration; 10 μL of the enzyme preparation is added, the materials mixed and then the mixture is incubated at ambient temperature for 15 minutes. The enzyme reaction is initiated by the addition of 40 μL of substrate. The increase in fluorescence is monitored at 4 time points (0, 8, 16 and 24 minutes) at ambient temperature. Each assay is carried out in duplicate wells.

HIV-1 = test: CEM cell assay: HIV inhibition in acutely infected cells (MTT colorimetric); assay type: cell-based; settings: HIV-1 infected CEM cells, 7 days, concentration reducing cytopathicity by 50%, read-out: Antiviral Activity in Cell Culture (EC50)
Procedure: (§1) The effectiveness of the compounds tested in Part A was also determined in a CEM cell assay. The HIV inhibition assay method of acutely infected cells is an automated tetrazolium based colorimetric assay essentially that reported by Pauwles et al, J. Virol. Methods 20, 309-321 (1988). Assays were performed in 96-well tissue culture plates. CEM cells, a CD4^+ cell line, were grown in RPMI-1640 medium (Gibco) supplemented with a 10% fetal-calf serum and were then treated with polybrene (2 μg/mL). An 80 μL volume of medium containing 1×10^4 cells was dispensed into each well of the tissue culture plate. To each well was added a 100 μL volume of test compound dissolved in tissue culture medium (or medium without test compound as a control) to achieve the desired final concentration and the cells were incubated at 37° C. For 1 hour. A frozen culture of HIV-1 was diluted in culture medium to a concentration of 5×10^4 TCID50 per mL (TCID50=the dose of virus that infects 50% of cells in tissue culture), and a 20 μL volume of the virus sample (containing 1000 TCID50 of virus) was added to wells containing test compound and to wells containing only medium (infected control cells). Several wells received culture medium without virus (uninfected control cells). Likewise, the intrinsic toxicity of the test compound was determined by adding medium without virus to several wells containing test compound. In summary, the tissue culture plates contained the following experiments:
(§2) In experiments 2 and 4, the final concentrations of test compounds were 1, 10, 100 and 500 μg/mL. Either azidothymidine (AZT) or dideoxyinosine (ddI) was included as a positive drug control. […] DMSO was added to all control wells at an appropriate concentration.
(§3) Following the addition of virus, cells were incubated at 37° C. in a humidified, 5% CO2 atmosphere for 7 days. Test compounds could be added on days 0, 2 and 5 if desired. On day 7, post-infection, the cells in each well were resuspended and a 100 μL sample of each cell suspension was removed for assay. A 20 μL volume of a 5 mg/mL solution of 3-(4,5-dimethylthiazol-2-yl)-2,5-diphenyltetrazolium bromide (MTT) was added to each 100 μL cell suspension, and the cells were incubated for 4 hours at […] in a 5% CO2 environment. […] To each sample was added 100 μL of 10% sodium dodecylsulfate in 0.01 N HCl to lyse the cells, and samples were incubated overnight. The absorbance at 590 nm was determined for each sample using a Molecular Devices microplate reader. Absorbance values for each set of wells is compared to assess viral control infection, uninfected control cell response as well as test compound by cytotoxicity and antiviral efficacy.
(§4) The calculated EC^50 (effective concentration 50%, i.e., the concentration at which the inhibitor compound reduces cytopathicity by 50%) and TD^50 (toxic dose 50%, i.e., the concentration at which the inhibitor compound reduces cellular viability by 50%) values for these compounds are also shown in Table 1.

[1] = CEM cell assay: intrinsic toxicity of test compound in uninfected cells (MTT); assay type: cell-based; settings: human, uninfected CEM cells (CD4+ cell line); CEM cells without virus, 7 days, concentration reducing cellular viability by 50% (TD50)
Procedure: as §1, §2, §3, §4

CEM cells = test: as above; assay type: cell-based
Procedure: as §1, §2, §3, §4

[2] = Human immunodeficiency virus 1, CCRF-CEM, 168 h
[3] = substrate 80 μM, HIV protease 12.3 nanomolar, pH 6.4, ambient temperature, read-out: Enzyme Inhibition (IC50)

Molecule	inhibition at 10 µM (HIV protease) [%]	EC50 (HIV-1; [2]) [nM]	IC50 at 7 days [1] [nM]	IC50 (HIV protease; [3]) [nM]	other results
C[C@@H](C(=O)N[C@@H](Cc1ccccc1)[C@H](O)CN1C[C@H]2CCCC[C@H]2C[C@H]1C(=O)NC(C)(C)C)C(C)(C)C(N)=O [Example 12, Butanamide, 4-[[3-[3-[[(1,1-dimethylethyl)-amino]carbonyl]octahydro-2 (1H)-isoquinolinyl]-2-hydroxy-1-(phenylmethyl)propyl]amino]-2,2,3-trimethyl-4-oxo-, [3S-[2[1R*(S*),2S*], 3α, 4aβ, 8 aβ]]]	3 to 100				
CC(C)(C)NC(=O)[C@@H]1C[C@@H]2CCCC[C@@H]2CN1C[C@@H](O)[C@H](Cc1ccccc1)NC(=O)C[C@H](NC(=O)c1ccc2ccccc2n1)C(N)=O (relative stereo) [Example 10, butanediamide, N^4-[3-[3-[[(1,1-dimethylethyl)-amino]carbonyl]octahydro-2(1H)-isoquinolinyl]-2-hydroxy-1-(phenyl-methyl)propyl]-2-[(2-quinolinylcarbonyl)amino]-, [3S[2[1R*(R*),2S*], 3α,4aβ,8aβ]]]	3 to 100	37	5000		IC50 (HIV protease): 9 nM
COc1ccc(COC(=O)NCC(C)C(=O)NC(Cc2ccccc2)C(O)CN2CC3CCCCC3CC2C(=O)NC(C)(C)C)cc1 (stereo not drawn) [Example 4, carbamic acid, [3-[[3-[3-[[(1,1-dimethylethyl)-amino]carbonyl]octahydro-2(1H)-isoquinolinyl]-2-hydroxy-1-(phenyl-methyl)propyl]amino]-2-methyl-3-oxopropyl]-,(4-methoxyphenyl)methylester,[3S-[2[1R*(S*),2S*], 3α,4aβ,8aβ]]]				7	EC50 (HIV-1): 42 nM; IC50 (CEM cells): 58000 nM
C[C@@H](C(=O)N[C@@H](Cc1ccccc1)[C@H](O)CN1C[C@H]2CCCC[C@H]2C[C@H]1C(=O)NC(C)(C)C)C(C)(C)C(=O)O [Example 12C, butanoic acid, 4-[[3-[3-[[(1,1-dimethylethyl)amino]carbonyl]octahydro-2(1H)-isoquinolinyl]-2-hydroxy-1-(phenylmethyl)propyl]amino]-2,2,3-trimethyl-4-oxo-, [3S-[2[1R*(S*),2S*], 3α,4aβ, 8aβ]]-]	3 to 100				
COc1ccc(COC(=O)NC[C@@H](C)C(=O)N[C@@H](Cc2ccccc2)[C@H](O)CN2C[C@H]3CCCC[C@H]3C[C@H]2C(=O)NC(C)(C)C)cc1 (relative stereo) [Example 4, carbamic acid, [3-[[3-[3-[[(1,1-dimethylethyl)-amino]carbonyl]octahydro-2(1H)-isoquinolinyl]-2-hydroxy-1-(phenyl-methyl)propyl]amino]-2-methyl-3-oxopropyl]-,(4-methoxyphenyl)methylester,[3S-[2[1R*(S*),2S*], 3α,4aβ,8aβ]]]	3 to 100				
3-Isoquinolinecarboxamide, N-(1,1-dimethylethyl)decahydro-2-[2-hydroxy-3-[[2-methyl-3-(methylsulfonyl)-1-oxopropyl]amino]-4-phenylbutyl]-, [3S-[2[2S*,3R*(R*)], 3α,4aβ,8aβ]] [Example 6]				2	EC50 (HIV-1): 52 nM; IC50 (CEM cells; CEM cells without virus, 7 days, concentration reducing cellular viability by 50% (TD50), read-out: Cell Toxicity (IC50)): 2000 nM
C[C@@H](C(=O)N[C@@H](Cc1ccccc1)[C@H](O)CN1C[C@H]2CCCC[C@H]2C[C@H]1C(=O)NC(C)(C)C)C(C)(C)C(N)=O (relative stereo) [Example 12, Butanamide, 4-[[3-[3-[[(1,1-dimethylethyl)-amino]carbonyl]octahydro-2 (1H)-isoquinolinyl]-2-hydroxy-1-(phenylmethyl)propyl]amino]-2,2,3-trimethyl-4-oxo-, [3S-[2[1R*(S*),2S*], 3α, 4aβ, 8 aβ]]]		98	59000	9	
C[C@@H](C(=O)N[C@@H](Cc1ccccc1)[C@H](O)CN1C[C@H]2CCCC[C@H]2C[C@H]1C(=O)NC(C)(C)C)C(C)(C)C(=O)O (relative stereo) [Example 12C, butanoic acid, 4-[[3-[3-[[(1,1-dimethylethyl)amino]carbonyl]octahydro-2(1H)-isoquinolinyl]-2-hydroxy-1-(phenylmethyl)propyl]amino]-2,2,3-trimethyl-4-oxo-, [3S-[2[1R*(S*),2S*], 3α,4aβ, 8aβ]]-]		184	50000	23	
C[C@H](CS(C)(=O)=O)C(=O)N[C@@H](Cc1ccccc1)[C@H](O)CN1C[C@H]2CCCC[C@H]2C[C@H]1C(=O)NC(C)(C)C (relative stereo) [Example 6, 3-Isoquinolinecarboxamide, N-(1,1-dimethylethyl)decahydro-2-[2-hydroxy-3-[[2-methyl-3-(methylsulfonyl)-1-oxopropyl]amino]-4-phenylbutyl]-, [3S-[2[2S*,3R*(R*)], 3α,4aβ,8aβ]]]	3 to 100				

— patent US7312333B2, “Retroviral protease inhibitors” (Pharmacia Corporation, priority 1992, dated 2007)
